The target of assay [1] is T1, Suppressor of tumorigenicity 14 protein homolog (Mus musculus, UniProt P56677).
T1 sequence (P56677 whole entry): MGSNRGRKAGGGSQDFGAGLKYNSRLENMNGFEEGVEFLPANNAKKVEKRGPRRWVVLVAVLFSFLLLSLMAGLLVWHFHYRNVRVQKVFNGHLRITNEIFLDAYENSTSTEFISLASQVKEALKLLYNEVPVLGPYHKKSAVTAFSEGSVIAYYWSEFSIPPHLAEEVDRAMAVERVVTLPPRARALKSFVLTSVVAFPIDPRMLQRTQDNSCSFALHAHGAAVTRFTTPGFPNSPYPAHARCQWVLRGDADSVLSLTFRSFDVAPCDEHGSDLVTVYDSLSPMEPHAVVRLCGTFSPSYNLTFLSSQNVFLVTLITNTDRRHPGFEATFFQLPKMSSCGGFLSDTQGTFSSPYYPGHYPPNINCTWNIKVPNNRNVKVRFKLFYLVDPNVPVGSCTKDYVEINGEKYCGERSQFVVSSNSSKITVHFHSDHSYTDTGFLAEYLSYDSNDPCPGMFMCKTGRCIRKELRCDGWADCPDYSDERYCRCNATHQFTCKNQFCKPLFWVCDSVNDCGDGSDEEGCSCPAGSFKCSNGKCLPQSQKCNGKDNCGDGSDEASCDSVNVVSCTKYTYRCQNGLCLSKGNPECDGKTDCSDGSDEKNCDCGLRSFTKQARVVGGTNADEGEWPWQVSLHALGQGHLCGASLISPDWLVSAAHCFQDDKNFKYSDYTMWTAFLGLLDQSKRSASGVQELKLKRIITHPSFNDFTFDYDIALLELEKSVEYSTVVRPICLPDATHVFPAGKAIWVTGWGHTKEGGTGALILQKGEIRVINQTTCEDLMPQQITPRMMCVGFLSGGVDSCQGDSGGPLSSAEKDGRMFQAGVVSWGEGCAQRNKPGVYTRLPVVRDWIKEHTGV
The assay is described as follows: Inhibition of mouse recombinant matriptase using Boc-QAR-AMC as substrate preincubated for 30 mins followed by substrate addition measured for 15 to 120 mins by plate reader analysis.

The nature of assay [2]: Selectivity ratio of Ki for mouse recombinant matriptase to Ki for human recombinant hepsin.
Assay [3] concerns the target Serine protease hepsin (Homo sapiens, UniProt P05981). The assay is described as follows: Inhibition of human recombinant hepsin using Boc-QAR-AMC as substrate preincubated for 30 mins followed by substrate addition measured for 15 to 120 mins by plate reader analysis.

Where a SMILES comes first, the peptide text is derived from it.

As usually defined, the Ki is a measure of affinity in units of concentration, obtained from inhibition or displacement.

Chain of Serine protease hepsin (P05981 1-162 limits assumed): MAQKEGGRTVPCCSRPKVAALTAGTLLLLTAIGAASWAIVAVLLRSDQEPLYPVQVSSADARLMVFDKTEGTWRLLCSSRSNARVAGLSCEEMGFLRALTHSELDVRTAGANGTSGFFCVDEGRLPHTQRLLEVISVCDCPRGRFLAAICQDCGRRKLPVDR
Chain of Serine protease hepsin (P05981 163-417 limits assumed): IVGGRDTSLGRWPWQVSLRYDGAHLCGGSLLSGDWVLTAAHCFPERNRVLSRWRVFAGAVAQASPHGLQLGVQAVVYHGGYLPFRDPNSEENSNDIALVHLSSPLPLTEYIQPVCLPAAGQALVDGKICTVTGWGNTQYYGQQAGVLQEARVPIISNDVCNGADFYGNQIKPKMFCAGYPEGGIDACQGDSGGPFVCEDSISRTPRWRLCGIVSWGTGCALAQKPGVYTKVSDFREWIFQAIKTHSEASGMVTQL

Take `CC(=O)N[C@@H](CCC(N)=O)C(=O)N[C@@H](CC(C)C)C(=O)N[C@@H](CCCNC(=N)N)C(=O)c1nccs1`: the inhibitory constant (Ki) is 11.3 nM in assay [1] and 1.04 nM in assay [3]. In addition, the Ratio Ki in assay [2] was 8.

For `CC(=O)N[C@@H](CCC(N)=O)C(=O)N[C@@H](CC(C)C)C(=O)N[C@H](CCCNC(=N)N)C(=O)c1nccs1`, the inhibition constant (Ki) in assay [1] was 11.1 nM; in assay [3] it was 2.88 nM. The Ratio Ki in assay [2] stood at 8.

For `CC(=O)N[C@@H](CCCCN)C(=O)N[C@@H](CCC(N)=O)C(=O)N[C@@H](CC(C)C)C(=O)N[C@@H](CCCNC(=N)N)C(=O)c1nccs1`, the inhibitory constant (Ki) was 10.4 nM in assay [1] and 1.45 nM in assay [3].

Consider `CC(=O)N[C@@H](CC(C)C)C(=O)N[C@H](CCCNC(=N)N)C(=O)c1nccs1`, for which the Ki in assay [1] turned out to be 246 nM; in assay [3] it was 21.5 nM. Also, in assay [2], the Ratio Ki is 8.

As to `CC(=O)N[C@@H](CC(C)C)C(=O)N[C@@H](CCCN=C(N)N)C(=O)c1nc2ccccc2s1`, the inhibition constant (Ki) came out at 227 nM in assay [1] and 3.38 nM in assay [3]. Moreover, the Ratio Ki in assay [2] is greater than 60.

Regarding `CC(=O)N[C@@H](CC(C)C)C(=O)N[C@H](CCCNC(=N)N)C(=O)c1ccccc1`, the Ki in assay [1] and in assay [3] was greater than 10000 nM in each case.

For `CC(=O)N[C@@H](CC(C)C)C(=O)N[C@H](CCCNC(=N)N)C(=O)c1nc2ccccc2s1`, the Ki in assay [1] came to 177 nM; in assay [3], 2.91 nM. For the same compound, the Ratio Ki in assay [2] is greater than 60.

As to `CC(=O)N[C@@H](CCCCN)C(=O)N[C@@H](CCC(N)=O)C(=O)N[C@@H](CC(C)C)C(=O)O` (Ac-Lys-Gln-Leu-OH), the Ki in assay [1] and in assay [3] was greater than 10000 nM throughout.

In the case of `CC(=O)N[C@@H](CCCNC(=N)N)C(=O)c1nccs1`, the Ki in assay [1] and in assay [3] was greater than 10000 nM throughout.

As to `CC(=O)N[C@@H](CC(C)C)C(=O)N[C@@H](CCCNC(=N)N)C(=O)c1nccs1`, the Ki amounted to 334 nM in assay [1] and 22.4 nM in assay [3]. For the same compound, the Ratio Ki in assay [2] is 8.

As for `CC(=O)N[C@@H](CC(C)C)C(=O)N[C@@H](CCCNC(=N)N)C(=O)c1ccccc1`, the inhibition constant Ki in assay [1] and in assay [3] was greater than 10000 nM each time.

Take `CC(=O)N[C@@H](CCCCN)C(=O)N[C@@H](CCC(N)=O)C(=O)N[C@@H](CC(C)C)C(=O)N[C@H](CCCNC(=N)N)C(=O)c1nccs1`: the inhibition constant (Ki) in assay [1] is 8 nM; in assay [3], 0.83 nM.

(Values after ChEMBL document CHEMBL3745608, “Structure-based design, synthesis, and biological evaluation of Leu-Arg dipeptide analogs as novel hepsin inhibitors” (Bioorg Med Chem Lett, 2016).)
